Measurements published in US10517294B2, “Dihydrothiophene derivatives as insecticidal compounds” (priority 2012, dated 2019).

Legend:
Type in all cases: in vivo
[1] = tested on: Heliothis virescens; experiment: Heliothis virescens (tobacco budworm), eggs on artificial diet; details: application rate 200 ppm, eggs 0-24 h old on artificial diet, 5 days after infestation, read-out: control (at least one of egg mortality, larval mortality, growth inhibition)
Procedure: Eggs (0-24 h old) were placed in 24-well microtiter plates on artificial diet and treated with aqueous test solutions prepared from 10′000 ppm DMSO stock solutions by pipetting. The samples were assessed for egg mortality, larval mortality and growth inhibition 5 days after infestation. Control of Heliothis virescens by a test sample is noted when at least one of egg mortality, larval mortality and growth inhibition is better than the untreated sample.

[2] = tested on: Spodoptera littoralis; experiment: Spodoptera littoralis (Egyptian cotton leaf worm), sprayed cotton leaf discs; details: foliar, 72 h, application rate 200 ppm, L1 larvae on cotton leaf discs, 3 days after infestation, read-out: control (at least one of mortality, anti-feedant effect, growth inhibition)
Procedure: Cotton leaf discs were placed on agar in 24-well microtiter plates and sprayed with aqueous test solutions prepared from 10′000 ppm DMSO stock solutions. After drying the leaf discs were infested with five L1 larvae. The samples were assessed for mortality, anti-feedant effect, and growth inhibition 3 days after infestation. Control of Spodoptera littoralis by a test sample is noted when at least one of mortality, anti-feedant effect, and growth inhibition is better than the untreated sample.

[3] = tested on: Plutella xylostella; experiment: Plutella xylostella (diamond back moth), artificial diet; details: 120 h, application rate 200 ppm, L2 larvae on artificial diet, 5 days after infestation, read-out: control (at least one of mortality, growth inhibition)
Procedure: 24-well microtiter plates with artificial diet were treated with aqueous test solutions prepared from 10′000 ppm DMSO stock solutions by pipetting. After drying, the plates were infested with L2 larvae (10 to 15 per well). The samples were assessed for mortality and growth inhibition 5 days after infestation. Control of Plutella xyllostella by a test sample is noted when at least one of mortality and growth inhibition is better than the untreated sample.

[4] = tested on: Diabrotica balteata; experiment: Diabrotica balteata (corn root worm), sprayed maize sprouts; details: 96 h, application rate 200 ppm, L2 larvae on sprayed maize sprouts, 4 days after infestation, read-out: control (at least one of mortality, growth inhibition)
Procedure: Maize sprouts, placed on an agar layer in 24-well microtiter plates were treated with aqueous test solutions prepared from 10′000 ppm DMSO stock solutions by spraying. After drying, the plates were infested with L2 larvae (6 to 10 per well). The samples were assessed for mortality and growth inhibition 4 days after infestation. Control of Diabrotica balteata by a test sample is noted when at least one of mortality and growth inhibition is better than the untreated sample.

[5] = tested on: Tetranychus urticae; experiment: Tetranychus urticae (two-spotted spider mite), sprayed bean leaf discs; details: foliar, 192 h, application rate 200 ppm, mixed ages on bean leaf discs, 8 days after infestation, read-out: control (mortality, mobile stages)
Procedure: Bean leaf discs on agar in 24-well microtiter plates were sprayed with aqueous test solutions prepared from 10′000 ppm DMSO stock solutions. After drying the leaf discs were infested with a mite population of mixed ages. The samples were assessed for mortality (mobile stages) 8 days after infestation.

[6] = tested on: Thrips tabaci; experiment: Thrips tabaci (onion thrips), sprayed sunflower leaf discs; details: foliar, 144 h, application rate 200 ppm, mixed ages on sunflower leaf discs, 6 days after infestation, read-out: control (mortality)
Procedure: Sunflower leaf discs were placed on agar in 24-well microtiter plates and sprayed with aqueous test solutions prepared from 10′000 ppm DMSO stock solutions. After drying the leaf discs were infested with a thrips population of mixed ages. The samples were assessed for mortality 6 days after infestation.

CCN1OC[C@@H](NC(=O)c2ccc(C3=CS[C@](c4cc(Cl)cc(Cl)c4)(C(F)(F)F)C3)cc2C)C1=O [Compound D3, 4-[(2R)-2-(3,5-dichlorophenyl)-2-(trifluoromethyl)-3H-thiophen-4-yl]-N-[(4R)-2-ethyl-3-oxo-isoxazolidin-4-yl]-2-methyl-benzamide]
≥ 80%: mortality at 200 ppm [1] | percent control (mortality, anti-feedant effect or growth inhibition) at 200 ppm [2] | mortality at 200 ppm [3] | mortality at 200 ppm [4] | mortality at 200 ppm [5] | mortality at 200 ppm [6]

Cc1cc(C2=CS[C@](c3cc(Cl)cc(Cl)c3)(C(F)(F)F)C2)ccc1C(=O)N[C@H]1C[S@@+]([O-])C1 [Compound D4, 4-[(2R)-2-(3,5-dichlorophenyl)-2-(trifluoromethyl)-3H-thiophen-4-yl]-2-methyl-N-(1-oxothietan-3-yl)benzamide]
≥ 80%: mortality at 200 ppm [1] | percent control (mortality, anti-feedant effect or growth inhibition) at 200 ppm [2] | mortality at 200 ppm [3] | mortality at 200 ppm [4] | mortality at 200 ppm [5] | mortality at 200 ppm [6]
